Measurements reported in PubChem BioAssay (NCI).
Values joined by “and” are separate entries in the source; they are usually repeats but may differ in a detail not shown here. Equal entries are not always repeated.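 Method: 48-hour compound exposure of cells in 96-well plates, five concentrations, linear interpolation of endpoints. The concentration for 50% growth inhibition is given as GI50. At the TGI there is no net growth.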

Experiments:
Experiment in all cases: NCI-60 cell line screen, 48 h
[1] = system: NCI-H522 lung
[2] = system: MALME-3M melanoma
[3] = system: IGROV1 ovarian
[4] = system: RXF 393 renal
[5] = system: MCF7 breast
[6] = system: MDA-MB-231 breast
[7] = system: TK-10 renal
[8] = system: K-562 leukemia
[9] = system: 786-0 renal
[10] = system: RPMI-8226 leukemia

With `COc1ccc(Cn2cc3c(c2-c2cc(OC)c(OC)c(OC)c2)CCc2cnoc2-3)cc1N` as the compound, how does the GI50 [1] read?
The GI50 was 0.018 µM.

And the TGI [1]?
The TGI was 0.058 µM.

What about the GI50 [2] of the same compound?
Its GI50 is 0.0382 µM.

And the TGI [2]?
The TGI was over 100 µM.

And the GI50 [3]?
Its GI50 is 0.0818 µM.

And the TGI [3]?
The TGI was over 72.6 µM.

What about the GI50 [4] of the same compound?
Its GI50 is 0.0319 µM.

What about the TGI [4] of the same compound?
The TGI was over 100 µM.

What about the GI50 [5] of the same compound?
Its GI50 is 0.036 µM.

And the TGI [5]?
Its TGI is over 40 µM.

What about the GI50 [6] of the same compound?
Its GI50 is 0.158 µM.

And the TGI [6]?
The TGI was over 100 µM.

And the GI50 [7]?
The GI50 was 0.0689 µM.

What about the TGI [7] of the same compound?
The TGI was over 100 µM.

And the GI50 [8]?
The GI50 was 0.0351 µM.

And the TGI [8]?
The TGI was over 100 µM.

What about the GI50 [9] of the same compound?
Its GI50 is 0.0599 µM.

And the TGI [9]?
The TGI was over 23.2 µM.

And the GI50 [10]?
Its GI50 is 0.0489 µM.

With `CC(C)C[C@H](NC(=O)[C@@H](NC(=O)c1cccc(-c2ccccc2)n1)[C@@H](C)O)B(O)O` as the compound, how does the GI50 [1] read?
The GI50 was 0.00302 µM.

What about the TGI [1] of the same compound?
Its TGI is 0.00881 µM.

And the GI50 [2]?
The GI50 was 0.00297 µM.

And the TGI [2]?
The TGI was 0.00838 µM and < 0.0196 µM.

And the GI50 [3]?
The GI50 was 0.0256 µM and 0.0229 µM.

What about the TGI [3] of the same compound?
Its TGI is 0.171 µM.

What about the GI50 [4] of the same compound?
The GI50 was 0.00414 µM.

And the TGI [4]?
Its TGI is 0.0151 µM and < 0.0119 µM.

What about the GI50 [5] of the same compound?
The GI50 was 0.00425 µM.

What about the TGI [5] of the same compound?
The TGI was 36.8 µM.

What about the GI50 [6] of the same compound?
Its GI50 is 0.00485 µM and 0.0191 µM.

What about the GI50 [7] of the same compound?
The GI50 was 0.00352 µM.

What about the TGI [7] of the same compound?
The TGI was 0.0592 µM and < 0.0273 µM.

And the GI50 [8]?
The GI50 was 0.00649 µM and 0.019 µM.

And the TGI [8]?
The TGI was 30.8 µM.

What about the GI50 [9] of the same compound?
The GI50 was 0.012 µM and 0.0147 µM.

What about the TGI [10] of the same compound?
The TGI was under 0.0108 µM.

`COc1c(Cl)ccc2c(-c3nc4cc(Cl)c(F)cc4s3)cc(=O)oc12` was tested. Which GI50 [1] did it give?
The GI50 was 1.6 µM.

What about the TGI [1] of the same compound?
Its TGI is 3.38 µM.

And the GI50 [2]?
The GI50 was 2.11 µM.

What about the TGI [2] of the same compound?
Its TGI is 4.73 µM.

What about the GI50 [3] of the same compound?
The GI50 was 1.68 µM.

What about the TGI [3] of the same compound?
The TGI was 3.97 µM.

What about the GI50 [4] of the same compound?
The GI50 was 5.83 µM.

And the TGI [4]?
Its TGI is 17.7 µM.

What about the GI50 [5] of the same compound?
The GI50 was 9.13 µM.

And the TGI [5]?
Its TGI is over 79 µM.

And the GI50 [6]?
Its GI50 is 2.84 µM.

And the TGI [6]?
Its TGI is 11.2 µM.

What about the GI50 [7] of the same compound?
The GI50 was 17.4 µM.

And the TGI [7]?
The TGI was 46.1 µM.

And the GI50 [8]?
The GI50 was 5.42 µM.

What about the TGI [8] of the same compound?
The TGI was over 100 µM.

And the GI50 [9]?
Its GI50 is 2.64 µM.

And the TGI [9]?
The TGI was 5.65 µM.

And the GI50 [10]?
The GI50 was 3.58 µM.

And the TGI [10]?
Its TGI is over 38.2 µM.

Which results are given for `N#C/C(=C\c1c(-c2ccccc2)[nH]c2ccccc12)C(=O)c1ccccc1`?
GI50 [1]: 3.98 µM; TGI [1]: 32.9 µM; GI50 [2]: 12.3 µM; TGI [2]: > 100 µM; GI50 [3]: 2.53 µM; TGI [3]: 24.2 µM; GI50 [4]: 9.61 µM; TGI [4]: > 100 µM; GI50 [5]: 3.95 µM; TGI [5]: > 100 µM; GI50 [6]: 13.2 µM; TGI [6]: > 100 µM; GI50 [7]: 11.1 µM; TGI [7]: 86.9 µM; GI50 [8]: > 100 µM; TGI [8]: > 100 µM; GI50 [9]: 16.5 µM; TGI [9]: > 100 µM; GI50 [10]: 2.43 µM; TGI [10]: 7.98 µM

With `COc1cccc(N=N/C(=N\NC(=O)c2cc(Br)ccc2O)c2ccc(N(CCC#N)CCC#N)cc2OC)c1` as the compound, how does the GI50 [1] read?
The GI50 was 60.5 µg/mL.

What about the TGI [1] of the same compound?
The TGI was over 150 µg/mL.

What about the GI50 [2] of the same compound?
Its GI50 is 57.7 µg/mL.

What about the TGI [2] of the same compound?
Its TGI is 142 µg/mL.

What about the GI50 [3] of the same compound?
The GI50 was 53.7 µg/mL.

What about the TGI [3] of the same compound?
Its TGI is over 150 µg/mL.

And the GI50 [4]?
The GI50 was 70.4 µg/mL.

And the TGI [4]?
Its TGI is over 150 µg/mL.

What about the GI50 [5] of the same compound?
The GI50 was 43.7 µg/mL.

What about the TGI [5] of the same compound?
The TGI was over 150 µg/mL.

And the GI50 [6]?
The GI50 was 71.9 µg/mL.

And the TGI [6]?
Its TGI is over 150 µg/mL.

What about the GI50 [8] of the same compound?
The GI50 was 25.4 µg/mL.

What about the TGI [8] of the same compound?
The TGI was over 150 µg/mL.

What about the GI50 [9] of the same compound?
The GI50 was 79.2 µg/mL.

And the TGI [9]?
Its TGI is over 150 µg/mL.

What about the GI50 [10] of the same compound?
Its GI50 is 41.4 µg/mL.

And the TGI [10]?
Its TGI is over 150 µg/mL.

For `CN(C)CCCCn1ccc2c1C(=O)c1c(c(O)c3ccccc3c1O)C2=O`, which GI50 [1] is on record?
Its GI50 is 33.8 µM.

And the TGI [1]?
The TGI was over 100 µM.

And the GI50 [3]?
Its GI50 is 18.6 µM.

What about the TGI [3] of the same compound?
Its TGI is over 100 µM.

And the GI50 [4]?
Its GI50 is 2.18 µM.

What about the TGI [4] of the same compound?
Its TGI is 8.91 µM.

What about the GI50 [5] of the same compound?
The GI50 was 11.3 µM.

What about the TGI [5] of the same compound?
The TGI was 28.4 µM.

What about the GI50 [6] of the same compound?
The GI50 was 17 µM.

What about the TGI [6] of the same compound?
The TGI was 95.6 µM.

And the GI50 [7]?
The GI50 was 0.501 µM.

What about the TGI [7] of the same compound?
Its TGI is 7.73 µM.

And the GI50 [8]?
The GI50 was 1.78 µM.

And the TGI [8]?
The TGI was 4.07 µM.

What about the GI50 [9] of the same compound?
Its GI50 is 12.2 µM.

And the TGI [9]?
Its TGI is 25.3 µM.

And the GI50 [10]?
The GI50 was 1.74 µM.

What about the TGI [10] of the same compound?
Its TGI is 7.52 µM.
